From patent US20260159474A1, “Aminoindane Compounds and Compositions and Methods of Their Therapeutic Use” (Solvonis Therapeutics Ireland Holdings Limited, priority 2021, published 2026) come the findings set out here.

“Also recorded” adds a separate entry of the source.

Series [1] can be described thus: Intrinsic clearance in human liver microsomes. The format is in vitro ADME. The settings on record: for microsomal CLint at 0.5 μM: pH 7.4, read-out: Cl (μL/min/mg protein) - Human Microsomes. How it is done:
(§1) Methods: The general procedure involved incubating test compounds with liver microsomes and subsequently detecting the compounds to determine intrinsic clearance. Clearance was estimated from the rate of depletion k (min-1), the volume of the incubation V (mL), and the amount of microsomal proteins in the incubation M (mg). Intrinsic clearance is defined by the following equation: Clint=k*V/M.
(§2) Values for CLint are expressed as μL/min/mg liver microsomes. Verapamil and dextromethorphan were used as positive controls for CYP3A4 and CYP2D6 isoforms, respectively, to confirm metabolic activity. Stock solutions were prepared in DMSO for therapeutic compounds and positive controls verapamil and dextromethorphan (10 mM for all). Working solutions were prepared by diluting stock in MeOH to reach […]. However, this concentration can be varied, e.g., when the test item is not soluble in the selected solvent.
(§3) Prior to experimentation, frozen liver microsomes were thawed in a water bath at 37° C. and kept on ice until use. The microsomes were then diluted with 50 mM potassium phosphate buffer pH 7.4 to a protein concentration of 0.56 mg/mL. To prepare test and control items in final incubation conditions, 5 μL of test compound and positive control working solutions were added to 445 μL of microsomes incubation mixture at 0.56 mg/mL and 50 μL of regenerating system.
(§4) As it relates to the automated incubation procedure for microsomes incubation, the following procedure was followed. Briefly, 150 μL of quenching solution (ACN containing an appropriate Internal Standard, i.e. Rolipram and Diclofenac for positive and negative ion mode, respectively) was manually dispensed or dispensed by using the Hamilton system in each well of 96 deep well 1 mL plates. Next, 800-1000 μL-aliquots of NADPH regenerating system were pre-warmed at 37° C. for 5 minutes. 5 μL of 50 µM test items and control were added to 445 μL of the 0.56 mg/mL microsomes solution, and the incubation mixture was pre-warmed in a 96 deep well 2 mL plate (incubation plate) at 37° C. for 5 minutes. The incubation reactions were initiated by adding 50 μL of pre-warmed NADPH regenerating system to the incubation mixtures.
(§5) 50 μL-aliquots were sampled from incubation mixtures at: 0, 3, 10, 15, 30, and 45 minutes. The samples were centrifuged at 3,000 rpm for 10 minutes and further diluted in order to optimize the analytical condition prior to the LC MS/MS or Rapid Fire-MS/MS analysis. Incubations of test items were run in duplicate (n=2) with a single positive control (n=1). For sample analysis, an LC-MS/MS system was used to monitor the test samples/control to internal standard peak area ratios as representative of the test or control item's concentration. Data from test item incubation was processed to give mean values where applicable. Metabolic stability was calculated from the ratio of peak area of the remaining test or control item with internal standard versus time.
(§6) Peak areas for test and control items were integrated using Integrator Software from Agilent or Analyst or MultiQuant Software from AB SciexTM and were exported to XLFit or Morphit (The Edge), which were designed to calculate in vitro metabolic stability parameters. The integrated peak areas of the test and control items at the selected time points were divided by the respective peak areas of the IS, and the percent of parent remaining was calculated by normalizing the peak area ratio of parent to IS at 0 min. Observed rate constant (kobs) for parent degradation was calculated by determining the slope of the line of the graph of the natural log of percentage parent remaining versus time of incubation. This was scaled for the protein in the incubation relative to that in the liver.

Series [2] can be described thus: Intrinsic clearance in rat liver microsomes. In kind it is in vitro ADME. The settings on record: for microsomal CLint at 0.5 μM: pH 7.4, read-out: Cl (μL/min/mg protein) - Rat Microsomes. The protocol: as §1, §2, §3, §4, §5, §6
On the technique in general: Liver microsomes are a subcellular fraction often used to study metabolism.

For `COc1ccc2c(c1)CC(N)C2` (stereo not shown) [MEAI, 5-methoxy-2-aminoindane], the microsomal CLint at 0.5 μM is 137 µL/min/mg in series [1] and 156 µL/min/mg in series [2].

In the case of `COC(=O)COc1ccc2c(c1)CC(N)C2` (stereo not shown) [CMP-402], in series [1], the “Cl (μL/min/mg protein) - Human Microsomes” value (from here on “Cl … - Human Microsomes”) is “greater clearance in human microsomes relative to MDMA; also recorded: greatest clearance” and the microsomal CLint at 0.5 μM is 758 µL/min/mg. Moreover, in series [2], the “Cl (μL/min/mg protein) - Rat Microsomes” value is recorded as “greatest clearance” and the microsomal CLint at 0.5 μM stood at 2050 µL/min/mg.

Consider `CNC(C)Cc1ccc2c(c1)OCO2` (stereo not shown) [MDMA], for which, in series [1], the “Cl … - Human Microsomes” value was 41 μL/min/mg protein. The “Cl (μL/min/mg protein) - Rat Microsomes” value in series [2] was 395 μL/min/mg protein.

Consider `COC(=O)c1cc2c(cc1OC)CC(N)C2` (stereo not shown) [CMP-401], for which, in series [1], the “Cl … - Human Microsomes” value is “greater clearance in human microsomes relative to MDMA” and the microsomal CLint at 0.5 μM worked out at 87.2 µL/min/mg. Further, the microsomal CLint at 0.5 μM in series [2] worked out at 121 µL/min/mg.

With `COc1cc2c(cc1C)CC(N)C2` (stereo not shown) [MMAI, 5-methoxy-6-methyl-2-aminoindane], the microsomal CLint at 0.5 μM in series [1] came to 46.7 µL/min/mg; in series [2], 200 µL/min/mg.

On to `COC(=O)c1ccc2c(c1)CC(N)C2` (stereo not shown) [CMP-405, 2-aminoindane-5-methylcarboxylate], for which, in series [1], the “Cl … - Human Microsomes” value was “greater clearance in human microsomes relative to MDMA” and the microsomal CLint at 0.5 μM stood at 137 µL/min/mg. Besides, in series [2], the microsomal CLint at 0.5 μM was determined as 143 µL/min/mg.
